Experimental data published in ChEMBL document CHEMBL3593229, “Identification of a potent 5-phenyl-thiazol-2-ylamine-based inhibitor of FLT3 with activity against drug resistance-conferring point mutations” (Eur J Med Chem, 2015).

How the values were obtained:
[1] = tested on: Receptor-type tyrosine-protein kinase FLT3 (Homo sapiens), P36888 [F691L]
[2] = target: Tyrosine-protein kinase HCK (Homo sapiens) (UniProt P08631); assay: Inhibition of human HCK at 0.1 uM relative to control
[3] = Plasma clearance in Sprague-Dawley rat at 2 mg/kg, iv; format: ADME, organism-based
[4] = tested on: Platelet-derived growth factor receptor alpha (Homo sapiens), P16234 [V561D]; assay: Inhibition of human PDGFRA V561D mutant at 0.1 uM relative to control
[5] = target: AMP-activated protein kinase, AMPK (Homo sapiens) (UniProt P54646+O43741+P54619+Q9UGJ0+Q9Y478+Q13131+Q9UGI9); assay: Inhibition of human AMPK A1/B1/G1 at 0.1 uM relative to control; format: protein-complex assay
[6] = tested on: Tyrosine-protein kinase ABL1 (Homo sapiens), P00519 [T315I]; assay: Inhibition of human ABL1 T315I mutant at 0.1 uM relative to control
[7] = target: Vascular endothelial growth factor receptor 3 (Homo sapiens) (UniProt P35916); assay: Inhibition of human FLT4 at 0.1 uM relative to control
[8] = target: CDK2/Cyclin A2 (Homo sapiens) (UniProt P24941+P20248); assay: Inhibition of human CDK2/cyclin A at 0.1 uM relative to control; format: protein-complex assay
[9] = target: Tyrosine-protein kinase Fyn (Homo sapiens) (UniProt P06241); assay: Inhibition of human FYN at 0.1 uM relative to control
[10] = target: Dual specificity protein kinase CLK2 (Homo sapiens) (UniProt P49760); assay: Inhibition of human CLK2 at 0.1 uM relative to control
[11] = target: Mast/stem cell growth factor receptor Kit (Homo sapiens) (UniProt P10721); assay: Inhibition of human KIT at 0.1 uM relative to control
[12] = tested on: RAF proto-oncogene serine/threonine-protein kinase (Homo sapiens), P04049 [Y340D,Y341D]; assay: Inhibition of human RAF1 Y340D/Y341D double mutant at 0.1 uM relative to control
Chain of RAF proto-oncogene serine/threonine-protein kinase (Homo sapiens), P04049 [Y340D,Y341D] (P04049 whole entry Y340D/Y341D): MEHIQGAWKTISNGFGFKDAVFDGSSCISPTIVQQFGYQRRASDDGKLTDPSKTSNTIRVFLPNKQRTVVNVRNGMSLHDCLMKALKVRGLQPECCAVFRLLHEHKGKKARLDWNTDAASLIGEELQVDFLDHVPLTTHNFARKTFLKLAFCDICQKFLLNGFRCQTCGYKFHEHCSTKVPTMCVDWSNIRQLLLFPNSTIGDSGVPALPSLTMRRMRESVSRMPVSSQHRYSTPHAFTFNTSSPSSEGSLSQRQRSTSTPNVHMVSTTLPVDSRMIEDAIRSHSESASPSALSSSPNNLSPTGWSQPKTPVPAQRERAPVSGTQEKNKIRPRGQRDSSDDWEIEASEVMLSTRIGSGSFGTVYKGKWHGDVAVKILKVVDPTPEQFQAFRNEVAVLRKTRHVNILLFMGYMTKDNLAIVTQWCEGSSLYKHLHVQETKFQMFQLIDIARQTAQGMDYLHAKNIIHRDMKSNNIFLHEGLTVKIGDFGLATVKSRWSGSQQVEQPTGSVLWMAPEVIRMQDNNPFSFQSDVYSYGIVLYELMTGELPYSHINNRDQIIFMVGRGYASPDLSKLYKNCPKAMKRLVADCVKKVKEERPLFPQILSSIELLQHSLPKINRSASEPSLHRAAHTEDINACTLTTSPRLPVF

Chain of Tyrosine-protein kinase HCK (Homo sapiens) (P08631 2-526 limits assumed): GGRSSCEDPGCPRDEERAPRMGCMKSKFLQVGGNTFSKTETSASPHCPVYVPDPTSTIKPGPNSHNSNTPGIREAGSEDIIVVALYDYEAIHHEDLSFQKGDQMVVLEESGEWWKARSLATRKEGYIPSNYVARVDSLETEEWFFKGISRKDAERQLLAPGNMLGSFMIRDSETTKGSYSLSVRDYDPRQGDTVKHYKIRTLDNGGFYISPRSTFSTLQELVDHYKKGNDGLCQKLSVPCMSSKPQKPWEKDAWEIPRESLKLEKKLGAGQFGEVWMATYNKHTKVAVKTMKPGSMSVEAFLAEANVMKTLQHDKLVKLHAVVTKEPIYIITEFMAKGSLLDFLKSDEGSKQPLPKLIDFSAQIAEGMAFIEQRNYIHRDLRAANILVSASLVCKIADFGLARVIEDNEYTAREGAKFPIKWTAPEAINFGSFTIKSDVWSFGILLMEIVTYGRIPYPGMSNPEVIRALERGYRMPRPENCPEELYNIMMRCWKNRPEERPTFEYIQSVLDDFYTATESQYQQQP
Chain of Mast/stem cell growth factor receptor Kit (Homo sapiens) (P10721 whole entry): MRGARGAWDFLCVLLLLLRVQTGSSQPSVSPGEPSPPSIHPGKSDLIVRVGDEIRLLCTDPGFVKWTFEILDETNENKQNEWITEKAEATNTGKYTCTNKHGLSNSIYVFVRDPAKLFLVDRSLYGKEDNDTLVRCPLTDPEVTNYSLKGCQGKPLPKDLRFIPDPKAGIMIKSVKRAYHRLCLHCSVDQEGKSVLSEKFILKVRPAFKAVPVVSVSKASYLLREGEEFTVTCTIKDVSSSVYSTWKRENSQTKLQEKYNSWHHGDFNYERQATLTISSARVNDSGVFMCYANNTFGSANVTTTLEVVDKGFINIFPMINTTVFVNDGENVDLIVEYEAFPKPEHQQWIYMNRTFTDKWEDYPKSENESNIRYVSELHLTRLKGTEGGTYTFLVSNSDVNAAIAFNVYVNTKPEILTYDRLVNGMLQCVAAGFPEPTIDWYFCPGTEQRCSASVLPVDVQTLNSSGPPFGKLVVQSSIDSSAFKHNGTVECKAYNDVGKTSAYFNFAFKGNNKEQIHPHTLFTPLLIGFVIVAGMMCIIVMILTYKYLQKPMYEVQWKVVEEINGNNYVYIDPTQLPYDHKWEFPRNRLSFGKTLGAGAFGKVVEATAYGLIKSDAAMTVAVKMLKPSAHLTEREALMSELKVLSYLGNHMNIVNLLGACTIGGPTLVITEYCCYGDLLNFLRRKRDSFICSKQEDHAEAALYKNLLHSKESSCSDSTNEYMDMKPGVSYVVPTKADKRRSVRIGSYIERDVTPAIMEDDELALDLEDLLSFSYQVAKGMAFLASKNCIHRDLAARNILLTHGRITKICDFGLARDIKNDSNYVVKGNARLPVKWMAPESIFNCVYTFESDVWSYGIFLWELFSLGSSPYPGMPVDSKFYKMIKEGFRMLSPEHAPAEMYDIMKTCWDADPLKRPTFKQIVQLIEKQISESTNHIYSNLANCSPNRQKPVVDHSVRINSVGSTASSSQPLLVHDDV
Chain of Vascular endothelial growth factor receptor 3 (Homo sapiens) (P35916 whole entry): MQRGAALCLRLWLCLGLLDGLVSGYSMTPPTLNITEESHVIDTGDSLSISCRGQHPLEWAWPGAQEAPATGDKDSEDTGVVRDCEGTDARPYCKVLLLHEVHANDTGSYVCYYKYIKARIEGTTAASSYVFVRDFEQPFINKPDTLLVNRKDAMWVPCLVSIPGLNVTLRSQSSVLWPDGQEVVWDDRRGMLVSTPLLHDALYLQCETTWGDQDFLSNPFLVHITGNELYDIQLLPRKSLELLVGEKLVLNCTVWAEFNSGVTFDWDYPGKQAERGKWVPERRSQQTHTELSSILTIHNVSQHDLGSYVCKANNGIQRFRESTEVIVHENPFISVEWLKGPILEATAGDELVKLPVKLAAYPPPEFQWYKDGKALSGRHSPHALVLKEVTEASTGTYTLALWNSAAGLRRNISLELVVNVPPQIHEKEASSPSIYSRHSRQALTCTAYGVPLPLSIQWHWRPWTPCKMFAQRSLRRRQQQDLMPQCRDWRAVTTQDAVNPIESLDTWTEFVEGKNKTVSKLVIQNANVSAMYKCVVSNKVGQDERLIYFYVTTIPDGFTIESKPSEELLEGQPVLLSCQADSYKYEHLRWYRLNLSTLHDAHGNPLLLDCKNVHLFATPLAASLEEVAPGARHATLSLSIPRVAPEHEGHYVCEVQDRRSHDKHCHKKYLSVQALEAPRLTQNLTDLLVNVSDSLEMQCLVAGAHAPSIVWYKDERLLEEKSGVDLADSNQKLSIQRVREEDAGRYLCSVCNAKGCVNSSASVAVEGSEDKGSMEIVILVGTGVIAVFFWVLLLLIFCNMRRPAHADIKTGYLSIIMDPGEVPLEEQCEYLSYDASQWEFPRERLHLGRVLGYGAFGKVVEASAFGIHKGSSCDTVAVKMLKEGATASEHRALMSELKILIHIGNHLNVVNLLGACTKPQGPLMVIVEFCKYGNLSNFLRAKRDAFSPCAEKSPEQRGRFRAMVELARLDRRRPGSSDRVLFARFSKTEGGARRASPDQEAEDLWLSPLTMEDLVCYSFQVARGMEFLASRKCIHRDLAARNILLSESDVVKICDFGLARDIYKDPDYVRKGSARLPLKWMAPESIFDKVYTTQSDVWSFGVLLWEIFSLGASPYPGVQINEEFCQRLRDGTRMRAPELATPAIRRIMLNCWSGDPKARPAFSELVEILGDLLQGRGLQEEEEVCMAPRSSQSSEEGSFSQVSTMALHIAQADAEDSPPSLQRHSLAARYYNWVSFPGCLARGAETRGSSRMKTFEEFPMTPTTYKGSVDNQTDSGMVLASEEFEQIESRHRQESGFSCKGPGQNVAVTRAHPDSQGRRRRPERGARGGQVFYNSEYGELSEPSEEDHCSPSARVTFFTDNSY
Chain of Tyrosine-protein kinase Fyn (Homo sapiens) (P06241 2-537 limits assumed): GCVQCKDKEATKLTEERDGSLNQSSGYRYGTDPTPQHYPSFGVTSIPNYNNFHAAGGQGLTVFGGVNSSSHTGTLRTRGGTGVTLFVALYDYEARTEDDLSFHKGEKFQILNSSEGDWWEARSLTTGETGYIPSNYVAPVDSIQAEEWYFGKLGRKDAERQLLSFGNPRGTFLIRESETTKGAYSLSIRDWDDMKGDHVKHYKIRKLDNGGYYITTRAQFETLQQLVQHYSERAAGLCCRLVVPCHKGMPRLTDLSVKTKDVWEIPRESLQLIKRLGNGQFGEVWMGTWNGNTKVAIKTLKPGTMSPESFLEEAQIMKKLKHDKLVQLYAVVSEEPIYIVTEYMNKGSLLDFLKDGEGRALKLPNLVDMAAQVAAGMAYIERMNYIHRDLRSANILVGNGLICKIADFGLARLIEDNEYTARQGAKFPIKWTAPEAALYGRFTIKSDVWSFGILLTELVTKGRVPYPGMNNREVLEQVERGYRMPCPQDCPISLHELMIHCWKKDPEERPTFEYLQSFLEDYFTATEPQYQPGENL
Chain of Dual specificity protein kinase CLK2 (Homo sapiens) (P49760 whole entry, looked up): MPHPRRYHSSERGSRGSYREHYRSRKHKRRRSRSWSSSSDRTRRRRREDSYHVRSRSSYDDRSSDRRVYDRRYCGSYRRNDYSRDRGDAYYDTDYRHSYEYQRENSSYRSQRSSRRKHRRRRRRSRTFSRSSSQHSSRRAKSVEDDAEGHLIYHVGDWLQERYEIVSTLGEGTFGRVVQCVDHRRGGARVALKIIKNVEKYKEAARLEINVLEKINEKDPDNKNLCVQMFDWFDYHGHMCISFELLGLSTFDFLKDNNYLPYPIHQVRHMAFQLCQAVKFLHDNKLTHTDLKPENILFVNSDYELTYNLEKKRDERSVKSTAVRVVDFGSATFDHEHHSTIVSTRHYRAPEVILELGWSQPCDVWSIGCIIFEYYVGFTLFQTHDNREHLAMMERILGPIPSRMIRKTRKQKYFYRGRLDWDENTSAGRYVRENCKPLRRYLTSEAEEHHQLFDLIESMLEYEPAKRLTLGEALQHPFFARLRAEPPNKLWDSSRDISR

Structure (SMILES): CCc1cc(NC(=O)Nc2ccc(-c3cnc(Nc4cc(N5CCN(CC)CC5)nc(C)n4)s3)cc2)no1
- GI50 [1]: 70 nM
- inhibition [2]: 45%
- clearance [3]: 31.6 mL/min/kg
- inhibition [4]: 63%
- inhibition [5]: 16%
- inhibition [6]: 51%
- inhibition [7]: 80%
- inhibition [8]: 4%
- inhibition [9]: 46%
- inhibition [10]: -7%
- inhibition [11]: 64%
- inhibition [12]: 21%
